{"source": "PubChem BioAssay AID328", "about": "(DTP/NCI, 2004)", "test_system": "BDF1 mice, P388 leukemia ip, median survival T/C", "assay": "NCI In Vivo Anticancer Drug Screen. Data for tumor model P388 Leukemia (intraperitoneal) in B6D2F1 (BDF1) mice", "conditions": "endpoint: median survival time, higher = longer survival", "outline": "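Reported as T/C, where T is the survival measurement in dosed animals and C the same measurement in vehicle controls.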", "note": "“And” between values parts separate entries of the source, which are not always exact repeats. Identical values can stand only once. Toxic doses and inconclusive results are not listed."}
{"smiles": "COc1cc2cc3c4cc(OC)c(OC)cc4cc[n+]3c(C)c2cc1OC", "values": [{"measurement": "T/C", "setting": "dose: 8.0 mg/kg/injection, schedule: Q03HX024 (ip), vehicle: saline", "result": "150 % of control"}, {"measurement": "T/C", "setting": "dose: 12.5 mg/kg/injection, schedule: Q01DX009 (ip), vehicle: Klucel (hydroxypropylcellulose) (HPC)", "result": "105 % of control"}, {"measurement": "T/C", "setting": "dose: 12.5 mg/kg/injection, schedule: Q01DX009 (ip), vehicle: saline", "result": "165 % of control"}, {"measurement": "T/C", "setting": "dose: 12.5 mg/kg/injection, schedule: Q01DX009 (ip), vehicle: water", "result": "195 % of control"}, {"measurement": "T/C", "setting": "dose: 25.0 mg/kg/injection, schedule: Q01DX009 (ip), vehicle: water", "result": "195 % of control"}, {"measurement": "T/C", "setting": "dose: 25.0 mg/kg/injection, schedule: Q04DX003 (ip), vehicle: water", "result": "170 % of control"}, {"measurement": "T/C", "setting": "dose: 32.0 mg/kg/injection, schedule: Q03HX008 (ip), vehicle: saline", "result": "154 % of control"}, {"measurement": "T/C", "setting": "dose: 32.0 mg/kg/injection, schedule: Q03HX024 (ip), vehicle: saline", "result": "168 % of control"}, {"measurement": "T/C", "setting": "dose: 37.5 mg/kg/injection, schedule: Q01DX001 (ip), vehicle: saline", "result": "154 % of control"}, {"measurement": "T/C", "setting": "dose: 37.5 mg/kg/injection, schedule: Q01DX009 (ip), vehicle: saline", "result": "162 % of control"}, {"measurement": "T/C", "setting": "dose: 50.0 mg/kg/injection, schedule: Q01DX009 (ip), vehicle: saline", "result": "172 % of control and 181 % of control and 184 % of control"}, {"measurement": "T/C", "setting": "dose: 50.0 mg/kg/injection, schedule: Q01DX009 (ip), vehicle: water", "result": "190 % of control"}, {"measurement": "T/C", "setting": "dose: 50.0 mg/kg/injection, schedule: Q04DX003 (ip), vehicle: water", "result": "190 % of control"}, {"measurement": "T/C", "setting": "dose: 64.0 mg/kg/injection, schedule: Q01DX009 (ip), vehicle: saline", "result": "159 % of control"}, {"measurement": "T/C", "setting": "dose: 64.0 mg/kg/injection, schedule: Q01DX009 (sc), vehicle: saline", "result": "100 % of control"}, {"measurement": "T/C", "setting": "dose: 64.0 mg/kg/injection, schedule: Q03HX024 (ip), vehicle: saline", "result": "163 % of control"}, {"measurement": "T/C", "setting": "dose: 75.0 mg/kg/injection, schedule: Q01DX001 (ip), vehicle: saline", "result": "158 % of control"}, {"measurement": "T/C", "setting": "dose: 75.0 mg/kg/injection, schedule: Q01DX009 (ip), vehicle: saline", "result": "183 % of control"}, {"measurement": "T/C", "setting": "dose: 75.0 mg/kg/injection, schedule: Q04DX003 (ip), vehicle: saline", "result": "150 % of control"}, {"measurement": "T/C", "setting": "dose: 100.0 mg/kg/injection, schedule: Q01DX001 (ip), vehicle: water", "result": "195 % of control"}, {"measurement": "T/C", "setting": "dose: 100.0 mg/kg/injection, schedule: Q01DX009 (ip), vehicle: Klucel (hydroxypropylcellulose) (HPC)", "result": "170 % of control"}, {"measurement": "T/C", "setting": "dose: 100.0 mg/kg/injection, schedule: Q01DX009 (ip), vehicle: saline with Tween-80", "result": "159 % of control and 177 % of control and 195 % of control"}, {"measurement": "T/C", "setting": "dose: 100.0 mg/kg/injection, schedule: Q01DX009 (ip), vehicle: saline", "result": "172 % of control and 195 % of control"}, {"measurement": "T/C", "setting": "dose: 100.0 mg/kg/injection, schedule: Q01DX009 (ip), vehicle: water", "result": "210 % of control"}, {"measurement": "T/C", "setting": "dose: 100.0 mg/kg/injection, schedule: Q04DX002 (ip), vehicle: saline", "result": "163 % of control"}, {"measurement": "T/C", "setting": "dose: 100.0 mg/kg/injection, schedule: Q04DX003 (ip), vehicle: saline", "result": "153 % of control"}, {"measurement": "T/C", "setting": "dose: 100.0 mg/kg/injection, schedule: Q04DX003 (ip), vehicle: water", "result": "190 % of control"}, {"measurement": "T/C", "setting": "dose: 128.0 mg/kg/injection, schedule: Q01DX009 (ip), vehicle: saline", "result": "163 % of control"}, {"measurement": "T/C", "setting": "dose: 128.0 mg/kg/injection, schedule: Q01DX009 (sc), vehicle: saline", "result": "100 % of control"}, {"measurement": "T/C", "setting": "dose: 128.0 mg/kg/injection, schedule: Q03HX008 (ip), vehicle: saline", "result": "154 % of control"}, {"measurement": "T/C", "setting": "dose: 128.0 mg/kg/injection, schedule: Q03HX024 (ip), vehicle: saline", "result": "181 % of control"}, {"measurement": "T/C", "setting": "dose: 150.0 mg/kg/injection, schedule: Q01DX001 (ip), vehicle: saline", "result": "162 % of control"}, {"measurement": "T/C", "setting": "dose: 150.0 mg/kg/injection, schedule: Q01DX009 (ip), vehicle: saline", "result": "195 % of control"}, {"measurement": "T/C", "setting": "dose: 150.0 mg/kg/injection, schedule: Q04DX003 (ip), vehicle: saline", "result": "162 % of control"}, {"measurement": "T/C", "setting": "dose: 200.0 mg/kg/injection, schedule: Q01DX001 (ip), vehicle: water", "result": "185 % of control"}, {"measurement": "T/C", "setting": "dose: 200.0 mg/kg/injection, schedule: Q01DX009 (ip), vehicle: saline with Tween-80", "result": "86 % of control and 181 % of control and 218 % of control"}, {"measurement": "T/C", "setting": "dose: 200.0 mg/kg/injection, schedule: Q01DX009 (ip), vehicle: saline", "result": "172 % of control and 196 % of control and 204 % of control"}, {"measurement": "T/C", "setting": "dose: 200.0 mg/kg/injection, schedule: Q01DX009 (ip), vehicle: water", "result": "165 % of control"}, {"measurement": "T/C", "setting": "dose: 200.0 mg/kg/injection, schedule: Q04DX002 (ip), vehicle: saline", "result": "157 % of control"}, {"measurement": "T/C", "setting": "dose: 200.0 mg/kg/injection, schedule: Q04DX003 (ip), vehicle: saline", "result": "169 % of control and 204 % of control"}, {"measurement": "T/C", "setting": "dose: 200.0 mg/kg/injection, schedule: Q04DX003 (ip), vehicle: water", "result": "205 % of control"}, {"measurement": "T/C", "setting": "dose: 256.0 mg/kg/injection, schedule: Q01DX009 (sc), vehicle: saline", "result": "100 % of control"}, {"measurement": "T/C", "setting": "dose: 256.0 mg/kg/injection, schedule: Q03HX024 (ip), vehicle: saline", "result": "122 % of control"}, {"measurement": "T/C", "setting": "dose: 256.0 mg/kg/injection, schedule: Q08DX002 (ip), vehicle: saline", "result": "154 % of control"}, {"measurement": "T/C", "setting": "dose: 300.0 mg/kg/injection, schedule: Q01DX001 (ip), vehicle: saline", "result": "158 % of control"}, {"measurement": "T/C", "setting": "dose: 300.0 mg/kg/injection, schedule: Q01DX009 (ip), vehicle: saline", "result": "216 % of control"}, {"measurement": "T/C", "setting": "dose: 300.0 mg/kg/injection, schedule: Q04DX003 (ip), vehicle: saline", "result": "170 % of control"}, {"measurement": "T/C", "setting": "dose: 400.0 mg/kg/injection, schedule: Q01DX001 (ip), vehicle: water", "result": "170 % of control"}, {"measurement": "T/C", "setting": "dose: 400.0 mg/kg/injection, schedule: Q01DX009 (ip), vehicle: saline with Tween-80", "result": "181 % of control"}, {"measurement": "T/C", "setting": "dose: 400.0 mg/kg/injection, schedule: Q01DX009 (ip), vehicle: saline", "result": "90 % of control"}, {"measurement": "T/C", "setting": "dose: 400.0 mg/kg/injection, schedule: Q04DX002 (ip), vehicle: saline", "result": "163 % of control and 191 % of control"}, {"measurement": "T/C", "setting": "dose: 400.0 mg/kg/injection, schedule: Q04DX003 (ip), vehicle: saline", "result": "180 % of control and 190 % of control"}, {"measurement": "T/C", "setting": "dose: 400.0 mg/kg/injection, schedule: Q04DX003 (ip), vehicle: water", "result": "240 % of control"}, {"measurement": "T/C", "setting": "dose: 512.0 mg/kg/injection, schedule: Q01DX001 (ip), vehicle: saline", "result": "163 % of control"}, {"measurement": "T/C", "setting": "dose: 512.0 mg/kg/injection, schedule: Q01DX009 (sc), vehicle: saline", "result": "109 % of control"}, {"measurement": "T/C", "setting": "dose: 512.0 mg/kg/injection, schedule: Q08DX002 (ip), vehicle: saline", "result": "159 % of control"}, {"measurement": "T/C", "setting": "dose: 600.0 mg/kg/injection, schedule: Q01DX001 (ip), vehicle: saline", "result": "200 % of control"}, {"measurement": "T/C", "setting": "dose: 600.0 mg/kg/injection, schedule: Q01DX009 (ip), vehicle: saline", "result": "116 % of control"}, {"measurement": "T/C", "setting": "dose: 600.0 mg/kg/injection, schedule: Q04DX003 (ip), vehicle: saline", "result": "170 % of control"}, {"measurement": "T/C", "setting": "dose: 800.0 mg/kg/injection, schedule: Q04DX003 (ip), vehicle: saline", "result": "181 % of control"}, {"measurement": "T/C", "setting": "dose: 1024.0 mg/kg/injection, schedule: Q01DX001 (ip), vehicle: saline", "result": "109 % of control"}, {"measurement": "T/C", "setting": "dose: 1024.0 mg/kg/injection, schedule: Q01DX009 (sc), vehicle: saline", "result": "100 % of control"}, {"measurement": "T/C", "setting": "dose: 1024.0 mg/kg/injection, schedule: Q08DX002 (ip), vehicle: saline", "result": "177 % of control"}, {"measurement": "T/C", "setting": "dose: 2048.0 mg/kg/injection, schedule: Q01DX009 (sc), vehicle: saline", "result": "100 % of control"}, {"measurement": "T/C", "setting": "dose: 2048.0 mg/kg/injection, schedule: Q04DX003 (ip), vehicle: saline", "result": "109 % of control"}]}
